How the values were obtained:
[1] = Solubility in water; format: physicochemical
[2] = target: T1, albumin (Bos taurus, UniProt P02769); assay: Gelation of albumin solution in PBS by synthetic crosslinker after raising pH; set-up: species or system bovine; details: for time to soft hydrogel: 333 mg bovine serum albumin in 0.667 ml PBS; for Gel time: 27° C.
T1 construct: 333 mg bovine serum albumin was dissolved in 0.667 ml PBS
Excerpt: As described above, a biological fluid (e.g., blood, serum, or fibrinogen rich fractions) may be used for reaction with crosslinkers or the monomers to form a crosslinked gel material. The material may be made in preparation for a medical procedure, e.g., immediately before or during the same, and used with a crosslinker or the monomer. […] The crosslinking reaction is accelerated by raising the pH of the solution. This can be achieved by contacting such composition with suitable alkaline buffer. Nonlimiting examples of suitable alkaline buffers include HEPES, sodium hydroxide, potassium hydroxide, calcium hydroxide, bicarbonate/NaOH pH 10, sodium borate pH 10, 1.5 M glycine/NaOH pH 10, 0.5-0.75M sodium carbonate/bicarbonate pH 10, 1M hydroxyethylepiperazine propane sulfonic acid (EPPS) pH 8.5, Trishydroxymethyl aminoethane sulphonic acid pH 8 and triethanol amine pH 7. The amount of alkaline buffer that is utilized should be enough to induce crosslinking. In some cases, the crosslinker is mixed with the alkaline buffer to raise the pH and then mixed with biological fluid to induce crosslinking or gelation. This method is least preferred due to hydrolysis of n-hydroxysuccimide esters at higher pH. The amine-succinimide ester reaction parameters such as number of reactive functional groups present on the biological fluid components, concentration of each ingredient, pH, temperature and pressures are adjusted such that gelation occurs within 60 minutes, more preferably with in 60 seconds and most preferably with 1 to 10 seconds.
pH was raised using 3M NaOH solution, at ambient temperature (27° C.) and mixed equal volumes. […] PEG 600 is polyethylene glycol with a molecular weight of 600.
[…] of […] was dissolved in 1 ml PBS. […] 20 microliter […] solution in PBS and 20 microliter albumin solution were mixed on a glass plate to form a uniform solution.
[…] of BTANHS was dispersed in 0.9 ml PBS. […] 20 microliter BTANHS dispersion in PBS and 20 microliter of albumin solution were mixed on a glass plate to form a uniform dispersion.
[…] of BTANHS was dispersed in 0.8 ml PBS containing 2% PLURONIC F127 (from BASF corporation USA) as a surfactant. Sonication or high speed stirring helps to form the emulsion. […] 20 microliter BTANHS emulsion in PBS and 20 microliter of albumin solution were mixed in a 1 ml plastic centrifuge tube to form a uniform solution.
Polyethylene glycol serves as an organic solvent. 200 mg bovine serum albumin was dissolved in 0.800 ml PBS.
20 microliter albumin solution and 20 microliter crosslinkers solution were mixed on a glass plate to form a uniform solution.

[3] = Degradation of crosslinked gel made with 8 arm PEG amine; format: physicochemical; details: gel with 8 arm PEG amine 20000; hydrolysis of ester bond of crosslinker
Protocol: 1 ml of each of these two solutions are mixed to produce a crosslinked gel. The crosslinked gel degrades due to hydrolysis of succinate ester bond in Hydroxylamine Succinate NHS ester.
0.12 g Hydroxylamine Glutarate NHS ester (Example 7) is dissolved in 5 ml phosphate buffered saline. 1 ml of each of two solutions are mixed to produce a crosslinked gel. The crosslinked gel degrades due to hydrolysis of glutarate ester bond in Hydroxylamine Glutarate NHS ester.

T1 sequence (P02769 25-607): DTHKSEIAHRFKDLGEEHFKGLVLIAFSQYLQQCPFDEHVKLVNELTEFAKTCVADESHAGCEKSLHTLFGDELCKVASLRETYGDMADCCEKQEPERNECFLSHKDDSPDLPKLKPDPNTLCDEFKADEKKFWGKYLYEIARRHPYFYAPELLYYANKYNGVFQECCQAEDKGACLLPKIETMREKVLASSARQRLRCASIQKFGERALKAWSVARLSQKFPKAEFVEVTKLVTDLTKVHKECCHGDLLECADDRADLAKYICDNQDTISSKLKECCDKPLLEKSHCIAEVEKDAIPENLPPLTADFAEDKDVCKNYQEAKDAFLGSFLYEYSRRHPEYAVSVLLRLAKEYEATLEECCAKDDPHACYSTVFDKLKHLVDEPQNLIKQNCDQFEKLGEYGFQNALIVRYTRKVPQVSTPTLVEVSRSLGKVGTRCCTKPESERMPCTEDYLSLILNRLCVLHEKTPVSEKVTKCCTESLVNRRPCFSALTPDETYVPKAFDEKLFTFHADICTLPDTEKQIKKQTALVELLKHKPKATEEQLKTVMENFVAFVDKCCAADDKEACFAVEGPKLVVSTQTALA

Compound	solubility in water [1]	time to soft hydrogel ([2]; crosslinker dispersion in PBS, 3M sodium hydroxide)	time to soft hydrogel ([2]; crosslinker emulsion in PBS with 2% PLURONIC F127, triethanol amine)	Notes (gel formed) ([2]; 5% albumin in PBS, crosslinker 10% in PBS)	Gel time ([2]; 5% albumin in PBS, crosslinker 10% in PBS, 3M NaOH, equal volumes)	Notes (gel formed) ([2]; 5% albumin in PBS, crosslinker (10%) in PEG 600)	Gel time ([2]; 5% albumin in PBS, crosslinker (10%) in PEG 600, 3M NaOH)	Notes (gel formed) ([2]; 10% albumin in PBS, crosslinker 10% in PBS)	Gel time ([2]; 10% albumin in PBS, crosslinker 10% in PBS, 3M NaOH, equal volumes)	Notes (gel formed) ([2]; 20% albumin in PBS, crosslinker 10% in PBS)	Gel time ([2]; 20% albumin in PBS, crosslinker 10% in PBS, 3M NaOH, equal volumes)	Notes (gel formed) ([2]; 20% albumin in PBS, crosslinker (10%) in PEG 600)	Gel time ([2]; 20% albumin in PBS, crosslinker (10%) in PEG 600, 3M NaOH)	Notes (gel formed) ([2]; 30% albumin in PBS, crosslinker 10% in PBS)	Gel time ([2]; 30% albumin in PBS, crosslinker 10% in PBS, pH raised with 3M NaOH, equal volumes)	degradation of crosslinked gel [3]
O=C(CC(C(=O)ON1C(=O)CCC1=O)C(CC(=O)ON1C(=O)CCC1=O)C(=O)ON1C(=O)CCC1=O)ON1C(=O)CCC1=O (stereo not shown) [BTANHS]	Water Insoluble	5 min	3 min	Did not gel	>28 min	Did not gel	>25 min	Soft gel	18 min	Soft gel	3 min	Soft gel	5 min	Soft gel	1 min	–
Hydroxylamine Glutarate NHS Ester	–	–	–	–	–	–	–	–	–	–	–	–	–	–	–	degrades
